Legend:
[1] = tested on: human keratinocytes
Method: The study was performed on a monolayer culture of human keratinocytes obtained from plastic surgeries. The cells are inoculated on D-3 into 96-well dishes at a rate of 25 000 cells/cm^2 in 100 μl of culture medium. The incubations are performed at 37° C. in a humid atmosphere enriched with 5% CO2.
Initially, the cells are treated for 24 hours with increasing concentrations (0, 10, 25, 50, 75, 100, 150 and 200 μM) of cadmium chloride (CdCl2), so as to determine its cytotoxicity. […]
At the end of the treatment, the cell viability is determined by means of the neutral red incorporation test (POS 55/006) and reading at 550 nm (ref: Borenfreund, E and Puerner, J. A. (1984) A simple quantitative procedure using monolayer cultures for cytotoxicity assays. Tissue Culture Methods; 9: 7-9).
The cells are rinsed with PBS buffer in order to remove the treatment solutions, and are then incubated for three hours at 37° C. in a neutral red solution (100 μl) prepared to a concentration of 0.5 mg/ml in the culture medium. […] The amount extracted is determined by reading the optical density on a spectrophotometer at 550 nm.
The concentration of CdCl2 that induces a 50% drop in the cell viability (IC-50) is then calculated.

[2] = tested on: human keratinocytes; assay: Covalent binding of 14C-benzo[a]pyrene to cell proteins (alkylation of nucleophiles); assay type: cell-based
Source text: Polycyclic aromatic hydrocarbons (PAHs), adsorbed onto the surface of particles and dust conveyed by the urban atmosphere, can penetrate into skin tissue and be biotransformed therein. Their metabolism in the liver, which is well-described in the literature, leads to the formation of monohydroxylated metabolites (detoxification pathway), epoxides and diol epoxides (toxifying pathway). It follows the same profile in the skin. […] After consequent or repeated exposures to the pollutant, its potential toxicity can lead to a contact hypersensitivity in the case of the alkylation of proteins. […] The cells are inoculated on D-3 into 6-well dishes at a rate of 53 000 cells/cm^2. The incubations are performed at 37° C. in humid atmosphere enriched with 5% CO2. […] The covalent binding to cell proteins is measured according to the protocol of Hoellinger et al., adapted to a filtration method in 96-well microplates (H. Hoellinger, M. Sonnier, J. Gray, T. A. Connors, J. Pichon and N. H. Nam. In vitro covalent binding of […], bioresmethrin and their common alcohol to hepatic proteins. Toxicol. Appl. Pharmacol., 1985, 77, 11-18). […] The aim of this series of washes is to remove from the proteins any radioactivity not covalently bound. […] Samples are then taken to assay the proteins and count the radioactivity of the solution. The results are expressed as nmol of B[a]P bound per mg of proteins.

[3] = tested on: human keratinocytes; assay: Protection against the effects of ozone: ozone-induced lipid hydroperoxides (DCFH-DA fluorescence); assay type: cell-based; conditions: ellagic acid 200 μM; for % fluorescence observed ± SEM, relative to the unprotected controls: ozone 10 ppm
Method: Ozone has the capacity to oxidize cell constituents, especially generating carbonylated proteins and lipid hydroperoxides. Quantification of the lipid hydroperoxides is one means of measuring the oxidative stress induced by an exposure of skin tissue to this pollutant. A decrease in their content indicates a protective effect of ellagic acid. […] The incubations are performed at 37° C., 5% CO2 in humid atmosphere. […] Hydroperoxides constitute an intracellular stress marker. They are detected and quantified by means of a fluorescence technique (Lebel C. P., Ischiropoulos H. and Bondy S. C. […] Chem. Res. Toxicol.: 5: 227-231). […] The cells, pretreated for 24 hours with ellagic acid, are then washed with phosphate-buffered saline (PBS) and placed in contact for 30 minutes with a solution of DCFH-DA (500 μl/well), prepared in the culture medium to a concentration of 320 μM. […] They are then exposed to ozone (10 ppm), in a humid atmosphere, in an incubator set at 37° C. The formation of fluorescent DCF (excitation screen at 485 nm and emission screen at 530 nm) resulting from the production of hydroperoxides is measured after different times of exposure to ozone: 0, 5, 10 and 20 minutes. […] For each time, the fluorescence values of the unprotected controls are set at 100%. The resulting values in the presence of ellagic acid are then expressed relative to this control value. […] This protection is at a maximum from 5 minutes of exposure onward (71.8% drop in induced stress). It is still significant after 20 minutes of exposure (47.7% drop in induced stress).

In the case of `O=c1oc2c(O)c(O)cc3c(=O)oc4c(O)c(O)cc1c4c23` [ellagic acid, 2,3,7,8-tetrahydroxy-(1)benzopyrano(5,4,3-cde)(1)benzopyran-5,10-dione], the “maximum dose of ellagic acid noncytotoxic to the cells” value ([1]; human, 24 h) is reported as 200 µM, the “reduction in the reactivity of B(a)P by a factor” value ([2]; in the presence of ellagic acid 100 μM) is reported as 3.1 and the “drop in induced stress” value ([3]; 5 minutes of exposure to ozone) is reported as 71.8%. For the same compound, the “drop in induced stress” value ([3]; 20 minutes of exposure to ozone) was 47.7%, the “% fluorescence observed ± SEM, relative to the unprotected controls” value ([3]; 5 min. of contact) was 28.2 ± 3.3% and the “% fluorescence observed ± SEM, relative to the unprotected controls” value ([3]; 10 min. of contact) was 36.3 ± 3.4%. For the same compound, the “% fluorescence observed ± SEM, relative to the unprotected controls” value ([3]; 20 min. of contact) was 52.3 ± 4.4%.
In the case of `[Cl][Cd][Cl]` [cadmium chloride, reference compound], the IC50 ([1]; read-out: IC-50 of cadmium chloride, Mean ± SEM, without ellagic acid, 24 hours, n=4) is reported as 39 µM.
In the case of `c1ccc2c(c1)cc1ccc3cccc4ccc2c1c34` [B (a) P, benzo(a)pyrene, reference compound], the “covalent binding to keratinocyte proteins” value ([2]; benzo(a)pyrene alone at 20 μM) is reported as 0.28 nmol of B(a)P per mg of protein.
